Source: patent US8551964B2, “Hsp90 inhibitors with modified toxicity” (The Regents of the University of Colorado, priority 2007, dated 2013)
Each block holds one molecule with its values, some of them ahead of it.

Legend:
[1] = cited from earlier work; for hepatotoxicity rank within the BA series: series GM, 17AAG, 17DMAG, 17AG, 17AEP-GA
[2] = Interaction of BA Hsp90 inhibitors with reduced glutathione (HPLC, LC-MS, [3H] glutathione)
Procedure: GM-glutathione conjugate formation was analyzed by HPLC and LC-MS. Briefly, 50 μM GM, 500 μM NADH, and 5 mM glutathione in the absence and presence of 11.8 μg rh-NQO1 and in the absence or presence of 2 μM ES936, were incubated in 50 mM potassium phosphate buffer, pH 7.4 (1 ml) at room temperature for 5 min. GM-glutathione conjugate formation was analyzed by HPLC at 270 nm (5 min).
Reaction conditions were: 50 μM 17DMAG, 500 μM NADH, and 5 mM glutathione, in the absence and presence of 11.8 μg rhNQO1 and in the absence or presence of 2 μM ES936, were incubated in 50 mM potassium phosphate buffer, pH 7.4 (1 ml) at room temperature for 3 h. 17DMAG-glutathione conjugate formation was analyzed by HPLC at 270 nm (3 h).
Reaction conditions were: 50 μM BA and 5 mM GSH were incubated in 50 mM potassium phosphate buffer, pH 7.4 (1 ml) at room temperature in the absence and presence of 11.8 μg of rhNQO1 and 500 μM NADH. BA-GSH conjugate formation was analyzed by HPLC at 270 nm and further confirmed by LC-MS. The amount of BA glutathione conjugate formation was quantified using [3H] glutathione.

[3] = biological target: T1, purified human cytochrome P450 reductase (Homo sapiens, UniProt P16435); test: Redox cycling catalyzed by purified human cytochrome P450 reductase; type: biochemical
T1 sequence (P16435 1-677): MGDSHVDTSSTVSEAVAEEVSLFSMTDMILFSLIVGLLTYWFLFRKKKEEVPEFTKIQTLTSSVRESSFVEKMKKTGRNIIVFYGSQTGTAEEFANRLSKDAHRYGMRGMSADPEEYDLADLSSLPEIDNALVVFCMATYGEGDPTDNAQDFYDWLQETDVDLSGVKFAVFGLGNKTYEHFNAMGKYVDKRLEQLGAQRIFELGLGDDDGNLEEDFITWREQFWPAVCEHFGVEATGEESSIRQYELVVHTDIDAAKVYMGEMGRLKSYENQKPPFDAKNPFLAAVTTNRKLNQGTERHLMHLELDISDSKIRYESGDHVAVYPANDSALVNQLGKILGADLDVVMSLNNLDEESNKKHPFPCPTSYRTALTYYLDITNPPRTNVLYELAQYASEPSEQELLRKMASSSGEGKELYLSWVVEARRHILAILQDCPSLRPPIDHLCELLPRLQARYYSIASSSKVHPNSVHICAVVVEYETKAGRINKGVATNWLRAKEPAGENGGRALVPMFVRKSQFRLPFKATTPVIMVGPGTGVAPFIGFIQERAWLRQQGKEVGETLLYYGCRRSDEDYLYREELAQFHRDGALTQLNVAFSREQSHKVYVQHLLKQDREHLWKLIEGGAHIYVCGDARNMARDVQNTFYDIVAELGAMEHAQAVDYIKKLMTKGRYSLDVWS

[4] = biological target: T2, NADPH-cytochrome P450 reductase (human liver microsomes) (Homo sapiens, UniProt P16435); test: One-electron redox cycling of BAs in human liver microsomes (oxygen consumption rate); type: in vitro ADME; details: NADPH- or NADH-dependent, 50 μM BA
T2 construct: Using human and mouse liver microsomes and either NADPH or NADH as cofactors; from tissue; host or cells: human liver microsomes
T2 sequence (P16435 1-677): T1 sequence (P16435 1-677)
Procedure: (§1) Using human and mouse liver microsomes and either NADPH or NADH as cofactors, the relative one-electron redox cycling rates of BAs mediated by NADPH-cytochrome P450 reductase were determined by measuring the rates of oxygen consumption. The rates of oxygen consumption and NAD(P)H oxidation were measured as indicators of the relative redox cycling rates of BAs. […] The oxygen consumption rate was measured using a Clark electrode (air tight) over 10 min.

[5] = biological target: T3, NADPH-cytochrome P450 reductase (mouse liver microsomes) (Mus musculus, UniProt P37040); test: One-electron redox cycling of BAs in mouse liver microsomes (oxygen consumption rate); type: in vitro ADME; details: NADPH- or NADH-dependent, 50 μM BA
T3 construct: Using human and mouse liver microsomes and either NADPH or NADH as cofactors; from tissue; host or cells: mouse liver microsomes
T3 sequence (P37040 1-678): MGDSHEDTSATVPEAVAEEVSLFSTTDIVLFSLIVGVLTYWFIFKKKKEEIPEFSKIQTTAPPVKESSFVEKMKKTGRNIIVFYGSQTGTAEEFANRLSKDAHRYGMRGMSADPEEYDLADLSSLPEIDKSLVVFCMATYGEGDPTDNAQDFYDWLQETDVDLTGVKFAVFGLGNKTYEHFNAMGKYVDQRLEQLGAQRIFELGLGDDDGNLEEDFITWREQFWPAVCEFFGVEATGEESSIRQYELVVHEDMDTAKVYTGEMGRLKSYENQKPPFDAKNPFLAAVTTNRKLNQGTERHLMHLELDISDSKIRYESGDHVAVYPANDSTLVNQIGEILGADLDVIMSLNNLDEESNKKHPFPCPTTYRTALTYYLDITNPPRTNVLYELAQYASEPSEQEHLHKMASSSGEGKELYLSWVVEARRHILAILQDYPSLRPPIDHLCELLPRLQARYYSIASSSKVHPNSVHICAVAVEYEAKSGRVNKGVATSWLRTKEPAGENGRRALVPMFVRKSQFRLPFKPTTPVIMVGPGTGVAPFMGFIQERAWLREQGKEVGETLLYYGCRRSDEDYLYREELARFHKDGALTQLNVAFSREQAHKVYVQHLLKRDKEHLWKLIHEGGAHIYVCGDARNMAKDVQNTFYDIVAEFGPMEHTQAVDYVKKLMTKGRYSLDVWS
Procedure: as §1

[6] = 50 μM BA, 5 mM reduced glutathione, pH 7.4, room temperature

SMILES: C=CCNC1=C2C[C@@H](C)C[C@H](OC)[C@H](O)[C@@H](C)/C=C(\C)[C@H](OC(N)=O)[C@@H](OC)/C=C\C=C(/C)C(=O)NC(=CC1=O)C2=O [17AAG, 17-(allylamino)-17-demethoxygeldanamycin]
- hepatotoxicity rank within the BA series [1]: least hepatotoxic
- formation of glutathione conjugate (speed, in words) [2, 6]: very slow

SMILES: CO[C@H]1/C=C\C=C(/C)C(=O)NC2=CC(=O)C(NCCN3CCCC3)=C(C[C@@H](C)C[C@H](OC)[C@H](O)[C@@H](C)/C=C(\C)[C@@H]1OC(N)=O)C2=O [17AEP-GA, 17-demethoxy-17-[[2-(pyrrolidin-1-yl)ethyl]amino]-geldanamycin]
- relative rate of glutathione conjugate formation (rank order in the series) [2, 6]: GM>17DMAG>17AEP-GA>17AAG and 17AG
- fraction conjugated with glutathione ([2]; 50 μM BA, 5 mM reduced glutathione, pH 7.4, room temperature, within 10 h): about 90%

SMILES: CO[C@H]1/C=C\C=C(/C)C(=O)NC2=CC(=O)C(NCCN(C)C)=C(C[C@@H](C)C[C@H](OC)[C@H](O)[C@@H](C)/C=C(\C)[C@@H]1OC(N)=O)C2=O [17DMAG, 17-demthoxy-17-[[2-(dimethylamino)ethyl]amino]-geldanamycin]
- rate of redox cycling [3]: greatest rate
- 17DMAGH2-SG conjugate detection [2, 6]: not detected
- relative rate of glutathione conjugate formation (rank order in the series) [2, 6]: GM>17DMAG>17AEP-GA>17AAG and 17AG
- 17DMAG-SG conjugate formed ([2]; 50 μM BA, 5 mM reduced glutathione, pH 7.4, room temperature, within 4 h): approximately 47 μM

Now from value to molecule, other results behind:

- formation of glutathione conjugate (speed, in words) [2, 6]: very slow
- relative rate of glutathione conjugate formation (rank order in the series) [2, 6]: GM>17DMAG>17AEP-GA>17AAG and 17AG
SMILES: CO[C@H]1/C=C\C=C(/C)C(=O)NC2=CC(=O)C(N)=C(C[C@@H](C)C[C@H](OC)[C@H](O)[C@@H](C)/C=C(\C)[C@@H]1OC(N)=O)C2=O [17AG, 17-(amino)-17-demethoxygeldanamycin]

- relative rate of metabolism (one-electron redox cycling, oxygen consumption) [4]: relatively rapid rate
- relative rate of metabolism (one-electron redox cycling, oxygen consumption) [5]: relatively rapid rate
- relative rate of glutathione conjugate formation (rank order in the series) ([2]; 50 μM, pH 7.4): GM>17DMAG>17AEP-GA>17AAG and 17AG
- GMH2-SG conjugate formed ([2]; 5 min, 50 μM, pH 7.4): approximately 45 μM
SMILES: COC1=C2C[C@@H](C)C[C@H](OC)[C@H](O)[C@@H](C)/C=C(\C)[C@H](OC(N)=O)[C@@H](OC)/C=C\C=C(/C)C(=O)NC(=CC1=O)C2=O [GM, geldanamycin]
- hepatotoxicity ([1]; administration, Phase I clinical trials): unacceptable hepatotoxicity
- hepatotoxicity rank within the BA series [1]: most hepatotoxic
